Measurements: ChEMBL document CHEMBL1201862, “PubChem BioAssay data set” (2004)
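Grown in 96-well plates, cells were treated for 48 hours with each compound at five concentrations. Insufficient inhibition: endpoint recorded as highest concentration tested. GI50 is the concentration that inhibits growth by half.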 Active and inactive are the calls of the source. Cut-off read from the data, not from the text of the source: active = GI50 up to about 1.1 µM and inactive = higher.

Experiments:
Assay in all cases: NCI anticancer screen, dose series, 48 h
SNB-75 = tested on: SNB-75
MOLT-4 = tested on: MOLT-4
TK-10 = tested on: TK-10
CCRF-CEM = tested on: CCRF-CEM
DLD-1 = tested on: DLD-1
UACC-257 = tested on: UACC-257
SK-MEL-5 = tested on: SK-MEL-5
NCI-H460 = tested on: NCI-H460
SNB-19 = tested on: SNB-19
786-0 = tested on: 786-0
M19-MEL = tested on: M19-MEL
KM12 = tested on: KM12
UACC-62 = tested on: UACC-62
HCT-116 = tested on: HCT-116
SF-295 = tested on: SF-295
K562 = tested on: K562
DMS-273 = tested on: DMS-273
SNB-78 = tested on: SNB-78
U-251 = tested on: U-251
COLO 205 = tested on: COLO 205
SN12C = tested on: SN12C
HCC 2998 = tested on: HCC 2998
IGROV-1 = tested on: IGROV-1
CAKI-1 = tested on: CAKI-1
SK-MEL-28 = tested on: SK-MEL-28
NCI-H226 = tested on: NCI-H226
RPMI-8226 = tested on: RPMI-8226
SR = tested on: SR
M14 = tested on: M14
HOP-18 = tested on: HOP-18
A498 = tested on: A498
HCT-15 = tested on: HCT-15
RXF 393 = tested on: RXF 393
SW-620 = tested on: SW-620
UO-31 = tested on: UO-31
SK-OV-3 = tested on: SK-OV-3
HT-29 = tested on: HT-29
Malme-3M = tested on: Malme-3M
A549 = tested on: A549
OVCAR-3 = tested on: OVCAR-3
SK-MEL-2 = tested on: SK-MEL-2
DMS-114 = tested on: DMS-114
ACHN = tested on: ACHN
OVCAR-5 = tested on: OVCAR-5
OVCAR-8 = tested on: OVCAR-8
SF-268 = tested on: SF-268
LXFL 529 = tested on: LXFL 529
OVCAR-4 = tested on: OVCAR-4
HOP-92 = tested on: HOP-92
NCI-H23 = tested on: NCI-H23
LOX IMVI = tested on: LOX IMVI
HL-60 = tested on: HL-60
EKVX = tested on: EKVX
NCI-H522 = tested on: NCI-H522
HOP-62 = tested on: HOP-62
KM-20L2 = tested on: KM-20L2

## C/C=C1\Oc2ccc(OC)cc2S1(=O)=O
SNB-75
  GI50: > 100 µM (inactive)
MOLT-4
  GI50: > 100 µM (inactive)
TK-10
  GI50: > 100 µM (inactive)
CCRF-CEM
  GI50: > 100 µM (inactive)
DLD-1
  GI50: > 100 µM (inactive)
UACC-257
  GI50: > 100 µM (inactive)
SK-MEL-5
  GI50: > 100 µM (inactive)
NCI-H460
  GI50: > 100 µM (inactive)
SNB-19
  GI50: > 100 µM (inactive)
786-0
  GI50: > 100 µM (inactive)
M19-MEL
  GI50: > 100 µM (inactive)
KM12
  GI50: > 100 µM (inactive)
UACC-62
  GI50: > 100 µM (inactive)
HCT-116
  GI50: > 100 µM (inactive)
SF-295
  GI50: > 100 µM (inactive)
K562
  GI50: > 100 µM (inactive)
DMS-273
  GI50: > 100 µM (inactive)
SNB-78
  GI50: > 100 µM (inactive)
U-251
  GI50: > 100 µM (inactive)
COLO 205
  GI50: > 100 µM (inactive)
SN12C
  GI50: > 100 µM (inactive)
HCC 2998
  GI50: > 100 µM (inactive)
IGROV-1
  GI50: > 100 µM (inactive)
CAKI-1
  GI50: > 100 µM (inactive)
SK-MEL-28
  GI50: > 100 µM (inactive)
NCI-H226
  GI50: > 100 µM (inactive)
RPMI-8226
  GI50: > 100 µM (inactive)
SR
  GI50: > 100 µM (inactive)
M14
  GI50: > 100 µM (inactive)
HOP-18
  GI50: > 100 µM (inactive)
A498
  GI50: > 100 µM (inactive)
HCT-15
  GI50: > 100 µM
RXF 393
  GI50: > 100 µM (inactive)
SW-620
  GI50: > 100 µM (inactive)
UO-31
  GI50: > 100 µM (inactive)
SK-OV-3
  GI50: > 100 µM (inactive)
HT-29
  GI50: > 100 µM (inactive)
Malme-3M
  GI50: > 100 µM (inactive)
A549
  GI50: > 100 µM (inactive)
OVCAR-3
  GI50: > 100 µM (inactive)
SK-MEL-2
  GI50: > 100 µM (inactive)
DMS-114
  GI50: > 100 µM (inactive)
ACHN
  GI50: > 100 µM (inactive)
OVCAR-5
  GI50: > 100 µM (inactive)
OVCAR-8
  GI50: > 100 µM (inactive)
SF-268
  GI50: > 100 µM (inactive)
LXFL 529
  GI50: > 100 µM (inactive)
OVCAR-4
  GI50: > 100 µM (inactive)
HOP-92
  GI50: > 100 µM (inactive)
NCI-H23
  GI50: > 100 µM (inactive)
LOX IMVI
  GI50: > 100 µM (inactive)
HL-60
  GI50: > 100 µM (inactive)
EKVX
  GI50: > 100 µM (inactive)
NCI-H522
  GI50: > 100 µM (inactive)
HOP-62
  GI50: > 100 µM (inactive)
KM-20L2
  GI50: > 100 µM (inactive)
